Test results: PMC7122770, “Potential endocrine disrupting properties of toys for babies and infants” (PLoS ONE, 2020)
pEC50: −log10 of the molar value. Structures can show the parent of a compound that is named as a salt. Where two headings read alike, the source gives them in different places.

Key:
[1] = biological target: T1, human estrogen receptor (Estrogen Receptor α) (Homo sapiens, UniProt P03372); assay: Analysis of detected pure substances in ER-CALUX; assay type: cell-based; details: for % E2 max: mean of triplicates
T1 sequence (P03372 1-595): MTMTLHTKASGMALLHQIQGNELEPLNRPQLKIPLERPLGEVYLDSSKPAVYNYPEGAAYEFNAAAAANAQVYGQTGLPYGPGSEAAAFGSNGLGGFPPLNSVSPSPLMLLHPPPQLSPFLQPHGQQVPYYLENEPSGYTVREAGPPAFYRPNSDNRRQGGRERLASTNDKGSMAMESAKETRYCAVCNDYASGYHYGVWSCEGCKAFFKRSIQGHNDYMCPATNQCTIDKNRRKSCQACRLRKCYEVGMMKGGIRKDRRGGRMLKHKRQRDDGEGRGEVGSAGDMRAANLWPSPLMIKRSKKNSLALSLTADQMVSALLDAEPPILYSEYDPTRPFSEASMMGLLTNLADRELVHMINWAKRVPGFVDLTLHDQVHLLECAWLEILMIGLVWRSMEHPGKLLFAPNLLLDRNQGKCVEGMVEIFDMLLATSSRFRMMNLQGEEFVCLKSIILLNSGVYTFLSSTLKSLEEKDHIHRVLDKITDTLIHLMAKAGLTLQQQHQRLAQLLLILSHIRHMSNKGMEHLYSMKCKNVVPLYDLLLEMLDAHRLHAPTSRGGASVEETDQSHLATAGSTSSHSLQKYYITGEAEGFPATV

[2] = cited from earlier work
[3] = cited from earlier work; remark: listed apart in the source
[4] = Toxicological reference values (TDI, ADI, reference dose); design: species or system human
From the text: Risks were estimated by comparing the daily exposure (DE) to toxicological reference values (TRV) when available.

[5] = tested on: U2-OS osteosarcoma cell line; assay: Cytotoxic effects / cell viability in the CALUX cells; assay type: cell-based, human; details: two highest concentrations in ER-CALUX
[6] = pure substance in ER-CALUX, read-out: EC50
[7] = 2,50E-06 mol/l in bioassay medium
[8] = 5,00E-06 mol/l in bioassay medium
[9] = 2,50E-04 mol/l in bioassay medium
[10] = 5,00E-04 mol/l in bioassay medium
[11] = 5,00E-05 mol/l in bioassay medium

## CC(C)C(=O)OCC(C)(C)C(OC(=O)C(C)C)C(C)C (centres unmarked) [2,2,4-Trimethyl-1,3-pentanediol diisobutyrate]
[1]
  pEC50: < 3.30
[1]; pure substance in ER-CALUX
  Estrogen active [yes/no]: no
[1]; pure substance in ER-CALUX, listed as TXIB
  Estrogen active [yes/no]: negative

## CCCCCCCC/C=C\CCCCCCCCCCCC(N)=O [13-Docosenamide (Z)]
[1]; pure substance
  endocrine activity in the in vitro tests used in this study: not endocrine active
[1]; pure substance in ER-CALUX
  Estrogen active [yes/no]: no
[1]; [6]
  pEC50: < 3.30

## C#C[C@]1(O)CC[C@H]2[C@@H]3CCc4cc(O)ccc4[C@H]3CC[C@@]21C [17α-ethinyl estradiol, reference compound]
[2]
  in vitro estrogen activity compared with 17β-estradiol: approximatively the same in vitro estrogen activity as the natural sex hormone 17β-estradiol
[3]; adult person (60 kg), based on working place thresholds ref 40
  acceptable daily intake (ADI): 7 ng
[4]
  fold lower ADI than 17β-estradiol: approximately 400 fold

## CCCCOC(=O)CC(CC(=O)OCCCC)(OC(C)=O)C(=O)OCCCC [Acetyl tributyl citrate (ATBC), Acetyl tributyl citrate]
[2]; based on published data ref 2
  estrogenic or androgenic activity: does not seem to show estrogenic or androgenic activity

## O=C(c1ccccc1)c1ccccc1 [Benzophenone]
[3]; recommended by the European Food Safety Agency ref 43
  tolerable daily intake (TDI): 30 μg/kg body weight per day

## CC(C)(c1ccc(O)cc1)c1ccc(O)cc1 [Bisphenol A (BPA), Bisphenol A]
[1]; [7]
  % E2 max: 151%
[1]; [8]
  % E2 max: 154%
[1]; 5,00E-07 mol/l in bioassay medium
  % E2 max: 116%
[1]; 5,00E-08 mol/l in bioassay medium
  % E2 max: 11%
[1]; 5,00E-09 mol/l in bioassay medium
  % E2 max: 5%
[1]; based on response curves in ER-CALUX (Fig 2)
  factor less estrogen active than the natural estrogen 17β-estradiol: ~30.000
[3]; recommended by EFSA, taking into account endocrine effects ref 43
  temporary tolerable daily intake (TDI): 4 μg/kg body weight per day

## CCOC(=O)c1ccccc1C(=O)OCC [Diethyl phthalate (DEP), Diethyl phthalate]
[1]; [9]
  % E2 max: 47%
[1]; [7]
  % E2 max: 9%
[1]; [10]
  % E2 max: 69%
[1]; [11]
  % E2 max: 23%
[1]; [8]
  % E2 max: 10%
[1]; pure substance in ER-CALUX
  Estrogen active [yes/no]: yes
[1]; [6]
  pEC50: 3.70

## CC(C)CCCCCCOC(=O)C1CCCCC1C(=O)OCCCCCCC(C)C (centres unmarked) [Diisononyl cyclohexane-1,2-dicarboxylate]
[1]; pure substance in ER-CALUX
  Estrogen active [yes/no]: no
[1]; pure substance in ER-CALUX, listed as DINCH
  Estrogen active [yes/no]: negative
[1]; [6]
  pEC50: < 3.30
[3]
  lowest reference value published: 0.7 mg/kg bw/day

## CCCCOC(=O)CC(O)(CC(=O)OCCCC)C(=O)OCCCC [Tributyl citrate (TBC), Tributyl citrate]
[1]; [9]
  % E2 max: 8%
[1]; [7]
  % E2 max: 4%
[1]; [10]
  % E2 max: 3%
[1]; [11]
  % E2 max: 34%
[1]; [8]
  % E2 max: 6%
[1]; pure substance in ER-CALUX
  Estrogen active [yes/no]: yes
[1]; pure substance in ER-CALUX, listed as TBC
  Estrogen active [yes/no]: low, but significant estrogen activity
[1]; [6]
  pEC50: 4.30
[5]
  cell viability: decrease in cell viability
